# Test results reported in patent US4087421A, “Substituted benzodiazepines and method of use” (American Cyanamid Company, priority 1977, dated 1978).
# Where “and” joins values, the source holds several entries; their conditions need not be identical. Equal entries are not always repeated.
# Experiments:
# [1] = "writhing syndrome" test for analgesic activity (phenyl p-quinone); type: in vivo, male Swiss albino mice; conditions: control approximately 30 per pair, active if 18 or less
# Description: This method is based upon the reduction of the number of writhes following the intraperitoneal injection of one mg./kg. of body weight of phenyl p-quinone in male Swiss albino mice weighing 15-25 g. The syndrome is characterized by intermittent contractions of the abdomen, twisting and turning of the trunk, and extension of the hind legs beginning 3 to 5 minutes after injection of the phenyl p-quinone. The test compounds are administered orally at the indicated dose to groups of 2 mice each, 30 minutes before injection of the phenyl p-quinone.
# [2] = reduction of spontaneous motor activity (Animax Activity Counter); type: in vivo; conditions: Rattus norvegicus, 5 min; oral, rats, 5 minute period; read-out: MDD50 (effective dose that causes a 50% reduction in motor activity)
# Description: A useful test for anti-psychotic activity consists of measuring the reduction of spontaneous motor activity in animals.
# Groups of 4 rats are treated orally with the test compound dissolved or suspended in starch vehicle at the maximum tolerated dose. At the estimated time of peak effect, the animals are placed singly into an Animax Activity Counter and the activity of each rat is recorded over a 5 minute period. The activity counts are compared to historical or parallel control values to determine significant increased or decreased locomotor activity.
# reversible ptosis test = type: in vivo; conditions: oral, rats
# Description: A useful test for anti-psychotic activity consists of measuring ptosis in animals.
# Ptosis is defined as closure of the palpebral aperture (eyelid) greater than 70%. The compounds to be tested were administered orally to groups of 10 rats each. Periodically after treatment the rats were gently placed on the cage top and examined for 90 seconds for signs of ptosis. This manipulation eliminates spontaneous ptosis. The rats were then dropped from a height of about 18 inches (exteroceptive stimulation) onto the cage top to test for reversibility of ptosis. Reversible ptosis is defined as less than 70% closure of the palpebral aperture for longer than one minute after the exteroceptive stimulation and is indicative of neuroleptic activity of the drug administered.
# [3] = Discrete Trial Conditioned Avoidance Test; type: in vivo, male Long-Evans rats; conditions: Rattus norvegicus, po, read-out: ED50 (reduces avoidance response by 50% as compared to controls)
# Description: In this test the compounds are administered orally to male Long-Evans rats in a universal starch vehicle. The rats have been pre-conditioned to make a 70% avoidance response. The rats are placed in individual cages and a warning tone is sounded every 20 seconds. Each rat has the opportunity to press a bar which, if done within 5 seconds, prevents an electric shock through the grid floor of the cage and is termed an avoidance response. Each rat is given 50 trials and a score of avoidance responses is kept. The drug is administered at various dose levels. […]
Compound,No. of Writhes Per Pair ([1]; 6.25 mg/kg oral),ED50 [2] [mg/kg],ED50 (dose estimated to create reversible ptosis in 50% of the animals) (reversible ptosis test) [mg/kg],No. of Writhes Per Pair ([1]; 1.6 mg/kg oral),ED50 [3] [mg/kg]
"CN1CCN(C2=Nc3ccc(Cl)cc3Nc3cscc32)CC1 [6-Chloro-10-(4-methyl-1-piperazinyl)-4H-thieno[3,4-b][1,5]benzodiazepine]",7 and 6,7.7,17,,
"CN1CCN(C2=Nc3cc(Cl)ccc3Nc3cscc32)CC1.[O-][Cl+3]([O-])([O-])O.[O-][Cl+3]([O-])([O-])O [7-Chloro-10-(4-methyl-1-piperazinyl)-4H-thieno[3,4-b][1,5]benzodiazepine diperchlorate]",,20,10,1 and 2,
"CN(C)CCCN1c2ccccc2Sc2ccc(Cl)cc21 [Chlorpromazine, reference compound]",,,,,9
